Consider 13 molecules from PubChem BioAssay AID252 (DTP/NCI, 2004).

For this test, the system named is BDF1 mice, intracerebral L1210 leukemia, survival T/C. Briefly: NCI In Vivo Anticancer Drug Screen. Data for tumor model L1210 Leukemia (intracerebral) in B6D2F1 (BDF1) mice. Conditions: higher = longer survival. The method, boiled down:
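Survival measured in treated and vehicle-control tumour-bearing mice; value = T/C.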

Where “and” joins values, the source holds several entries; their conditions need not be identical. Equal values may be shown once. Toxic doses and inconclusive results are not listed.

For `OC(CBr)C(O)C(O)C(O)CBr` (centres undefined), the T/C is 108 % of control (endpoint: mean survival time, dose: 25.0 mg/kg/injection, schedule: Q01DX009 (ip), vehicle: steriod suspending solution); 121 % of control (endpoint: mean survival time, dose: 50.0 mg/kg/injection, schedule: Q01DX009 (ip), vehicle: steriod suspending solution); 117 % of control (endpoint: mean survival time, dose: 100.0 mg/kg/injection, schedule: Q01DX009 (ip), vehicle: steriod suspending solution).

As to `C[C@@H]1CN1C1=CC(=O)C(N2C[C@H]2C)=CC1=O`, the T/C (endpoint: mean survival time, dose: 8.0 mg/kg/injection, schedule: Q01DX009 (ip), vehicle: Klucel (hydroxypropylcellulose) (HPC)) is 95 % of control.

Regarding `c1nc(SSc2ncnc3nc[nH]c23)c2[nH]cnc2n1`, for the setting “endpoint: mean survival time, dose: 75.0 mg/kg/injection, schedule: Q04DX003 (ip), vehicle: Klucel (hydroxypropylcellulose) (HPC)”, the T/C is 108 % of control.

On to `CNC(=N)c1ccc(NC(=N)c2ccc(NC(=O)Nc3cccc(NC(=O)Nc4ccc(C(=N)Nc5ccc(C(=N)NC)cc5)cc4)c3)cc2)cc1`, for which the T/C is, setting by setting: (endpoint: mean survival time, dose: 50.0 mg/kg/injection, schedule: Q01DX001 (ip), vehicle: water) 106 % of control; (endpoint: mean survival time, dose: 75.0 mg/kg/injection, schedule: Q01DX001 (ip), vehicle: water) 109 % of control.

Turning to `CS(=O)(=O)OCC(O)C(O)COS(C)(=O)=O` (centres undefined), the T/C is, setting by setting: (endpoint: mean survival time, dose: 440.0 mg/kg/injection, schedule: Q01DX001 (ip), vehicle: carboxymethylcellulose (CMC)) 92 % of control and 97 % of control; (endpoint: mean survival time, dose: 670.0 mg/kg/injection, schedule: Q01DX001 (ip), vehicle: carboxymethylcellulose (CMC)) 101 % of control and 100 % of control; (endpoint: mean survival time, dose: 1000.0 mg/kg/injection, schedule: Q01DX001 (ip), vehicle: carboxymethylcellulose (CMC)) 102 % of control and 100 % of control.

`CN(C)/N=N/c1nc[nH]c1C(N)=O`: the T/C runs as follows: (endpoint: mean survival time, dose: 53.0 mg/kg/injection, schedule: Q01DX Z (ip), vehicle: carboxymethylcellulose (CMC)) 106 % of control; (endpoint: mean survival time, dose: 80.0 mg/kg/injection, schedule: Q01DX Z (ip), vehicle: carboxymethylcellulose (CMC)) 104 % of control; (endpoint: mean survival time, dose: 120.0 mg/kg/injection, schedule: Q01DX Z (ip), vehicle: carboxymethylcellulose (CMC)) 112 % of control; (endpoint: mean survival time, dose: 180.0 mg/kg/injection, schedule: Q01DX Z (ip), vehicle: carboxymethylcellulose (CMC)) 93 % of control; (endpoint: mean survival time, dose: 317.0 mg/kg/injection, schedule: Q01DX001 (ip), vehicle: carboxymethylcellulose (CMC)) 101 % of control; (endpoint: mean survival time, dose: 482.0 mg/kg/injection, schedule: Q01DX001 (ip), vehicle: carboxymethylcellulose (CMC)) 87 % of control. Further, the T/C by setting is: (endpoint: median survival time, dose: 10.0 mg/kg/injection, schedule: Q01DX009 (ip), vehicle: carboxymethylcellulose (CMC)) 111 % of control; (endpoint: median survival time, dose: 20.0 mg/kg/injection, schedule: Q01DX009 (ip), vehicle: carboxymethylcellulose (CMC)) 111 % of control; (endpoint: median survival time, dose: 40.0 mg/kg/injection, schedule: Q01DX009 (ip), vehicle: carboxymethylcellulose (CMC)) 114 % of control; (endpoint: median survival time, dose: 80.0 mg/kg/injection, schedule: Q01DX009 (ip), vehicle: carboxymethylcellulose (CMC)) 117 % of control; (endpoint: median survival time, dose: 160.0 mg/kg/injection, schedule: Q01DX009 (ip), vehicle: carboxymethylcellulose (CMC)) 118 % of control; (endpoint: median survival time, dose: 200.0 mg/kg/injection, schedule: Q01DX009 (ip), vehicle: carboxymethylcellulose (CMC)) 103 % of control. For the same molecule, the T/C reads like this: (endpoint: median survival time, dose: 300.0 mg/kg/injection, schedule: Q01DX009 (ip), vehicle: carboxymethylcellulose (CMC)) 94 % of control; (endpoint: median survival time, dose: 320.0 mg/kg/injection, schedule: Q01DX009 (ip), vehicle: carboxymethylcellulose (CMC)) 108 % of control; (endpoint: median survival time, dose: 400.0 mg/kg/injection, schedule: Q01DX009 (ip), vehicle: carboxymethylcellulose (CMC)) 111 % of control; (endpoint: median survival time, dose: 600.0 mg/kg/injection, schedule: Q01DX009 (ip), vehicle: carboxymethylcellulose (CMC)) 94 % of control.

On to `O=C1C(NCCO)=C(N2CC2)C(=O)C(NCCO)=C1N1CC1`, for which the T/C by setting is: (endpoint: mean survival time, dose: 0.18 mg/kg/injection, schedule: Q01DX009 (ip), vehicle: saline) 108 % of control and 116 % of control; (endpoint: mean survival time, dose: 0.37 mg/kg/injection, schedule: Q01DX009 (ip), vehicle: saline) 114 % of control; (endpoint: mean survival time, dose: 1.5 mg/kg/injection, schedule: Q01DX009 (ip), vehicle: saline) 98 % of control.

Take `CC1CCCC(NC(=O)N(CCCl)N=O)C1` (centres undefined): the T/C was 174 % of control (endpoint: mean survival time, dose: 27.0 mg/kg/injection, schedule: Q01DX001 (ip), vehicle: other); 150 % of control and 251 % of control (endpoint: mean survival time, dose: 42.0 mg/kg/injection, schedule: Q01DX001 (ip), vehicle: other); 256 % of control and 273 % of control (endpoint: mean survival time, dose: 62.0 mg/kg/injection, schedule: Q01DX001 (ip), vehicle: other); 261 % of control (endpoint: mean survival time, dose: 71.0 mg/kg/injection, schedule: Q01DX001 (ip), vehicle: other); 205 % of control and 223 % of control (endpoint: mean survival time, dose: 93.0 mg/kg/injection, schedule: Q01DX001 (ip), vehicle: other); 92 % of control (endpoint: mean survival time, dose: 286.0 mg/kg/injection, schedule: Q01DX001 (ip), vehicle: other).

`O=NN(CCCl)C(=O)N[C@@H]1CCCC[C@H]1NC(=O)N(CCCl)N=O`: the T/C is 118 % of control (endpoint: mean survival time, dose: 67.0 mg/kg/injection, schedule: Q01DX001 (ip), vehicle: carboxymethylcellulose (CMC)); 124 % of control (endpoint: mean survival time, dose: 72.0 mg/kg/injection, schedule: Q01DX001 (ip), vehicle: carboxymethylcellulose (CMC)); 124 % of control (endpoint: mean survival time, dose: 100.0 mg/kg/injection, schedule: Q01DX001 (ip), vehicle: carboxymethylcellulose (CMC)); 162 % of control (endpoint: mean survival time, dose: 150.0 mg/kg/injection, schedule: Q01DX001 (ip), vehicle: carboxymethylcellulose (CMC)); 166 % of control (endpoint: mean survival time, dose: 240.0 mg/kg/injection, schedule: Q01DX001 (ip), vehicle: carboxymethylcellulose (CMC)).

`CCCC(=O)NC1=C(N2CC2)C(=O)C(NC(=O)CCC)=C(N2CC2)C1=O`: the T/C is 105 % of control (endpoint: mean survival time, dose: 1.0 mg/kg/injection, schedule: Q01DX009 (ip), vehicle: saline); 152 % of control (endpoint: mean survival time, dose: 4.0 mg/kg/injection, schedule: Q01DX009 (ip), vehicle: saline); 89 % of control (endpoint: mean survival time, dose: 8.0 mg/kg/injection, schedule: Q01DX009 (ip), vehicle: saline).

Regarding `Nc1n[nH]c(N)n1`, the T/C was 104 % of control and 97 % of control and 100 % of control (endpoint: mean survival time, dose: 100.0 mg/kg/injection, schedule: Q03HX024 (ip), vehicle: saline); 102 % of control and 104 % of control and 99 % of control (endpoint: mean survival time, dose: 150.0 mg/kg/injection, schedule: Q03HX024 (ip), vehicle: saline); 104 % of control (endpoint: mean survival time, dose: 225.0 mg/kg/injection, schedule: Q01DX Z (ip), vehicle: saline); 102 % of control and 108 % of control and 110 % of control (endpoint: mean survival time, dose: 225.0 mg/kg/injection, schedule: Q03HX024 (ip), vehicle: saline); 109 % of control and 119 % of control and 121 % of control (endpoint: mean survival time, dose: 335.0 mg/kg/injection, schedule: Q03HX024 (ip), vehicle: saline); 108 % of control (endpoint: mean survival time, dose: 375.0 mg/kg/injection, schedule: Q01DX Z (ip), vehicle: saline). The T/C is 109 % of control and 122 % of control (endpoint: mean survival time, dose: 500.0 mg/kg/injection, schedule: Q03HX024 (ip), vehicle: saline); 98 % of control (endpoint: mean survival time, dose: 750.0 mg/kg/injection, schedule: Q01DX Z (ip), vehicle: saline).

In the case of `O=NN(CCCl)C(=O)Nc1ccccc1Cl`, the T/C by setting is: (endpoint: mean survival time, dose: 22.0 mg/kg/injection, schedule: Q01DX001 (ip), vehicle: carboxymethylcellulose (CMC)) 100 % of control; (endpoint: mean survival time, dose: 33.0 mg/kg/injection, schedule: Q01DX001 (ip), vehicle: carboxymethylcellulose (CMC)) 89 % of control; (endpoint: mean survival time, dose: 50.0 mg/kg/injection, schedule: Q01DX001 (ip), vehicle: carboxymethylcellulose (CMC)) 100 % of control.

Turning to `CC12CC3(C)CC(C)(C1)CC(NC(=O)N(CCCl)N=O)(C2)C3`, the T/C by setting is: (endpoint: mean survival time, dose: 45.0 mg/kg/injection, schedule: Q01DX001 (ip), vehicle: other) 95 % of control; (endpoint: mean survival time, dose: 60.0 mg/kg/injection, schedule: Q01DX001 (ip), vehicle: other) 97 % of control; (endpoint: mean survival time, dose: 90.0 mg/kg/injection, schedule: Q01DX001 (ip), vehicle: other) 104 % of control; (endpoint: mean survival time, dose: 125.0 mg/kg/injection, schedule: Q01DX001 (ip), vehicle: other) 110 % of control; (endpoint: mean survival time, dose: 187.0 mg/kg/injection, schedule: Q01DX001 (ip), vehicle: other) 112 % of control.
